Several values for one entry are separate records, joined by “and”; a condition that tells them apart may be missing. Equal values may be shown once. Inconclusive results are not listed. Starred links: 1 amine or outer side, 2 acyl side, 3 side chain; linkers in the order of their positions; H or OH if unused. Positions of bridges follow the written chain, without caps; N, C: chain ends. Non-standard residues stand in square brackets, D forms with d. Residues, ends and D or L forms follow the SMILES beside them. Chains are numbered I, II in the order given. Actinocin(9to1) = Cc1c2oc3c(C)ccc(C(=O)[*:1])c3nc-2c(C(=O)[*:2])c(N)c1=O; aThr = C[C@H](O)[C@H](N)C(=O)O; NMeV = CN[C@H](C(=O)O)C(C)C; Sar = CNCC(=O)O
System: Lewis lung carcinoma i.m., BDF1 mice, T/C %
Test: NCI In Vivo Anticancer Drug Screen. Data for tumor model Lewis Lung Carcinoma (intramuscular) in B6D2F1 (BDF1) mice
Summary of the method: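 Tumour-bearing mice were dosed with compound, and either their survival or their tumour size was measured. Results were expressed relative to vehicle-treated controls as T/C.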

## CC[n+]1ccc(Nc2ccc(NC(=O)c3ccc(Nc4cc[n+](CC)c5ccc(N)cc45)cc3)cc2)cc1
endpoint: mean tumor weight, dose: 0.12 mg/kg/injection, schedule: Q01DX011 (ip), vehicle: water, higher = larger tumour
  T/C: 109 % of control
endpoint: mean tumor weight, dose: 0.25 mg/kg/injection, schedule: Q01DX011 (ip), vehicle: water, higher = larger tumour
  T/C: 83 % of control
endpoint: mean tumor weight, dose: 0.5 mg/kg/injection, schedule: Q01DX011 (ip), vehicle: water, higher = larger tumour
  T/C: 87 % of control
endpoint: mean tumor weight, dose: 1.0 mg/kg/injection, schedule: Q01DX011 (ip), vehicle: water, higher = larger tumour
  T/C: 100 % of control
endpoint: mean tumor weight, dose: 2.0 mg/kg/injection, schedule: Q01DX011 (ip), vehicle: water, higher = larger tumour
  T/C: 67 % of control
endpoint: median survival time, dose: 0.12 mg/kg/injection, schedule: Q01DX011 (ip), vehicle: water, higher = longer survival
  T/C: 88 % of control
endpoint: median survival time, dose: 0.25 mg/kg/injection, schedule: Q01DX011 (ip), vehicle: water, higher = longer survival
  T/C: 88 % of control
endpoint: median survival time, dose: 0.5 mg/kg/injection, schedule: Q01DX011 (ip), vehicle: water, higher = longer survival
  T/C: 92 % of control
endpoint: median survival time, dose: 0.88 mg/kg/injection, schedule: Q01DX007 (sc), vehicle: saline, higher = longer survival
  T/C: 87 % of control
endpoint: median survival time, dose: 1.0 mg/kg/injection, schedule: Q01DX011 (ip), vehicle: water, higher = longer survival
  T/C: 104 % of control
endpoint: median survival time, dose: 1.5 mg/kg/injection, schedule: Q01DX007 (sc), vehicle: saline, higher = longer survival
  T/C: 110 % of control
endpoint: median survival time, dose: 2.0 mg/kg/injection, schedule: Q01DX011 (ip), vehicle: water, higher = longer survival
  T/C: 106 % of control
endpoint: median survival time, dose: 2.5 mg/kg/injection, schedule: Q01DX007 (sc), vehicle: saline, higher = longer survival
  T/C: 112 % of control
endpoint: median survival time, dose: 4.1 mg/kg/injection, schedule: Q01DX007 (sc), vehicle: saline, higher = longer survival
  T/C: 89 % of control
endpoint: median survival time, dose: 6.8 mg/kg/injection, schedule: Q01DX007 (sc), vehicle: saline, higher = longer survival
  T/C: 66 % of control

## CCN(CC)CCCC(C)Nc1c2ccccc2nc2c(Cl)cccc12 (stereo not drawn)
endpoint: mean tumor weight (est.), dose: 7.5 mg/kg/injection, schedule: Q01DX011 (ip), vehicle: saline, higher = larger tumour
  T/C: 81 % of control
endpoint: mean tumor weight (est.), dose: 15.0 mg/kg/injection, schedule: Q01DX011 (ip), vehicle: saline, higher = larger tumour
  T/C: 96 % of control
endpoint: mean tumor weight (est.), dose: 30.0 mg/kg/injection, schedule: Q01DX011 (ip), vehicle: saline, higher = larger tumour
  T/C: 95 % of control

## Cc1c2oc3c(C)ccc(C(=O)N[C@@H]4C(=O)N[C@H](C(C)C)C(=O)N5CCC[C@H]5C(=O)N(C)CC(=O)N(C)[C@@H](C(C)C)C(=O)O[C@H]4C)c3nc-2c(C(=O)N[C@@H]2C(=O)N[C@H](C(C)C)C(=O)N3CCC[C@H]3C(=O)N(C)CC(=O)N(C)[C@@H](C(C)C)C(=O)O[C@H]2C)c(N)c1=O (I: [aThr][dV]P[Sar][NMeV] / II: [aThr][dV]P[Sar][NMeV]; ester I:1-I:C, II:1-II:C; linker I:N-II:N via Actinocin(9to1))
endpoint: median survival time, dose: 0.01 mg/kg/injection, schedule: Q01DX011 (ip), vehicle: water, higher = longer survival
  T/C: 99 % of control and 110 % of control and 112 % of control
endpoint: median survival time, dose: 0.02 mg/kg/injection, schedule: Q01DX011 (ip), vehicle: water, higher = longer survival
  T/C: 93 % of control and 94 % of control and 110 % of control
endpoint: median survival time, dose: 0.04 mg/kg/injection, schedule: Q01DX011 (ip), vehicle: water, higher = longer survival
  T/C: 110 % of control
endpoint: median survival time, dose: 0.05 mg/kg/injection, schedule: Q01DX011 (ip), vehicle: water, higher = longer survival
  T/C: 99 % of control and 100 % of control

## O=c1c(O)c(-c2ccc(O)c(O)c2)oc2cc(O)cc(O)c12
endpoint: median survival time, dose: 200.0 mg/kg/injection, schedule: Q02DX009 (ip), vehicle: saline, higher = longer survival
  T/C: 102 % of control

## CCN(CC)CCOC(=O)c1ccccc1N(c1ccccc1)c1ccccc1
endpoint: mean tumor weight (est.), dose: 62.5 mg/kg/injection, schedule: Q01DX011 (ip), vehicle: Klucel (hydroxypropylcellulose) (HPC), higher = larger tumour
  T/C: 67 % of control
endpoint: mean tumor weight (est.), dose: 125.0 mg/kg/injection, schedule: Q01DX011 (ip), vehicle: Klucel (hydroxypropylcellulose) (HPC), higher = larger tumour
  T/C: 59 % of control
endpoint: median survival time, dose: 62.5 mg/kg/injection, schedule: Q01DX011 (ip), vehicle: Klucel (hydroxypropylcellulose) (HPC), higher = longer survival
  T/C: 98 % of control

## CC(=N/NC(N)=S)/C(C)=N/NC(N)=S
endpoint: mean tumor weight (est.), dose: 100.0 mg/kg/injection, schedule: Q01DX011 (ip), vehicle: saline with Tween-80, higher = larger tumour
  T/C: 73 % of control
endpoint: mean tumor weight (est.), dose: 200.0 mg/kg/injection, schedule: Q01DX011 (ip), vehicle: saline with Tween-80, higher = larger tumour
  T/C: 65 % of control
endpoint: mean tumor weight (est.), dose: 400.0 mg/kg/injection, schedule: Q01DX011 (ip), vehicle: saline with Tween-80, higher = larger tumour
  T/C: 42 % of control
endpoint: median survival time, dose: 100.0 mg/kg/injection, schedule: Q01DX011 (ip), vehicle: saline with Tween-80, higher = longer survival
  T/C: 93 % of control
endpoint: median survival time, dose: 200.0 mg/kg/injection, schedule: Q01DX011 (ip), vehicle: saline with Tween-80, higher = longer survival
  T/C: 91 % of control
endpoint: median survival time, dose: 400.0 mg/kg/injection, schedule: Q01DX011 (ip), vehicle: saline with Tween-80, higher = longer survival
  T/C: 91 % of control

## CSC(=S)N/N=C/c1ccccn1
endpoint: mean tumor weight (est.), dose: 12.5 mg/kg/injection, schedule: Q01DX011 (ip), vehicle: saline with Tween-80, higher = larger tumour
  T/C: 67 % of control
endpoint: mean tumor weight (est.), dose: 25.0 mg/kg/injection, schedule: Q01DX011 (ip), vehicle: saline with Tween-80, higher = larger tumour
  T/C: 92 % of control
endpoint: mean tumor weight (est.), dose: 50.0 mg/kg/injection, schedule: Q01DX011 (ip), vehicle: saline with Tween-80, higher = larger tumour
  T/C: 50 % of control

## O=[N+]([O-])O.[Ga]
endpoint: mean tumor weight, dose: 3.12 mg/kg/injection, schedule: Q01DX011 (ip), vehicle: saline, higher = larger tumour
  T/C: 101 % of control
endpoint: mean tumor weight, dose: 6.25 mg/kg/injection, schedule: Q01DX011 (ip), vehicle: saline, higher = larger tumour
  T/C: 104 % of control
endpoint: mean tumor weight, dose: 12.5 mg/kg/injection, schedule: Q01DX011 (ip), vehicle: saline, higher = larger tumour
  T/C: 85 % of control
endpoint: mean tumor weight, dose: 25.0 mg/kg/injection, schedule: Q01DX011 (ip), vehicle: saline, higher = larger tumour
  T/C: 84 % of control
endpoint: median survival time, dose: 3.12 mg/kg/injection, schedule: Q01DX011 (ip), vehicle: saline, higher = longer survival
  T/C: 102 % of control
endpoint: median survival time, dose: 6.25 mg/kg/injection, schedule: Q01DX011 (ip), vehicle: saline, higher = longer survival
  T/C: 97 % of control
endpoint: median survival time, dose: 12.5 mg/kg/injection, schedule: Q01DX011 (ip), vehicle: saline, higher = longer survival
  T/C: 106 % of control
endpoint: median survival time, dose: 25.0 mg/kg/injection, schedule: Q01DX011 (ip), vehicle: saline, higher = longer survival
  T/C: 93 % of control

## Cc1c[n+]2c3ccccc3c3ccccc3c2s1
endpoint: mean tumor weight, dose: 10.0 mg/kg/injection, schedule: Q01DX011 (ip), vehicle: saline, higher = larger tumour
  T/C: 112 % of control
endpoint: median survival time, dose: 10.0 mg/kg/injection, schedule: Q01DX011 (ip), vehicle: saline with Tween-80, higher = longer survival
  T/C: 89 % of control

## O=S(=O)(O)SCCNCCCCCC1CCCCC1
endpoint: mean tumor weight (est.), dose: 0.75 mg/kg/injection, schedule: Q01DX011 (ip), vehicle: saline, higher = larger tumour
  T/C: 78 % of control
endpoint: mean tumor weight (est.), dose: 1.5 mg/kg/injection, schedule: Q01DX011 (ip), vehicle: saline, higher = larger tumour
  T/C: 80 % of control
endpoint: mean tumor weight (est.), dose: 3.0 mg/kg/injection, schedule: Q01DX011 (ip), vehicle: saline, higher = larger tumour
  T/C: 88 % of control
endpoint: mean tumor weight (est.), dose: 6.0 mg/kg/injection, schedule: Q01DX011 (ip), vehicle: saline, higher = larger tumour
  T/C: 100 % of control
endpoint: median survival time, dose: 0.75 mg/kg/injection, schedule: Q01DX011 (ip), vehicle: saline, higher = longer survival
  T/C: 94 % of control
endpoint: median survival time, dose: 1.5 mg/kg/injection, schedule: Q01DX011 (ip), vehicle: saline, higher = longer survival
  T/C: 111 % of control
endpoint: median survival time, dose: 3.0 mg/kg/injection, schedule: Q01DX011 (ip), vehicle: saline, higher = longer survival
  T/C: 107 % of control
endpoint: median survival time, dose: 6.0 mg/kg/injection, schedule: Q01DX011 (ip), vehicle: saline, higher = longer survival
  T/C: 96 % of control

## COCC(O)Cn1ccnc1[N+](=O)[O-] (stereo not drawn)
endpoint: median survival time, dose: 600.0 mg/kg/injection, schedule: Q01DX001 (ip), vehicle: saline, higher = longer survival
  T/C: 90 % of control and 92 % of control and 96 % of control
endpoint: median survival time, dose: 1000.0 mg/kg/injection, schedule: Q01DX001 (ip), vehicle: saline, higher = longer survival
  T/C: 92 % of control and 104 % of control and 106 % of control

## Cc1nc(N)nc(N)c1-c1ccc(Cl)c(Cl)c1
endpoint: mean tumor weight, dose: 6.0 mg/kg/injection, schedule: Q04DX004 (ip), vehicle: saline, higher = larger tumour
  T/C: 180 % of control
endpoint: median survival time, dose: 4.0 mg/kg/injection, schedule: Q04DX004 (ip), vehicle: saline, higher = longer survival
  T/C: 100 % of control
endpoint: median survival time, dose: 8.0 mg/kg/injection, schedule: Q04DX004 (ip), vehicle: saline, higher = longer survival
  T/C: 116 % of control

From PubChem BioAssay AID272 (DTP/NCI, 2004)
